Data published in paper PMC9372747, “Genome-wide analysis of UGT gene family identified key gene for the biosynthesis of bioactive flavonol glycosides in Epimedium pubescens Maxim” (Synthetic and Systems Biotechnology, 2022).

System: T1, EpGT60
T1 construct: not anchored to any chromosome
Experiment: UPLC of rhamnosylated product, GraphPad Prism fit
Assay type: biochemical, Epimedium pubescens
Conditions: 4 mM UDP-rhamnose, 1 mM DTT, 50 mM Tris-HCl pH 7.0, 30 °C, 1 h; substrate 100-500 μM

Work on CC(C)=CCc1c(O)cc(O)c2c(=O)c(O)c(-c3ccc(O)cc3)oc12 [8-prenylkaempferol] yielded a Km of 289 µM.
